From patent publication US10508103B2, “Benzimidazole-linked indole compound acting as novel divalent IAP antagonist” (MEDSHINE DISCOVERY INC., priority 2016, dated 2019)

Legend:
[1] = system: NF-κB Luciferase Reporter Hela cells; assay: TNF-α inducing NF-κB reporter; type: cell-based; details: Homo sapiens, 6 h, Bright-Glo luciferase
Procedure: Biological Assay 2: TNF-α inducing NF-κB reporter
• 1) tested compounds were added into DMSO to give parent liquor (10 mM); • 2) reference compound Birinapant (32 μL, 10 mM) was added into DMSO (128 μL) to give a solution (2 mM); • 3) 0.5 μL reference compound Birinapant (2 mM) and tested compounds (10 mM) were taken by Echo and added into Greiner 96 well black cell culture plate respectively. The initial concentration of the reference compound and tested compound was 10 μM and 50 μM, respectively. Then, the reference compound and tested compounds were diluted at 9 points in series by 5-fold; and every plate was repeated for 3 times. • 4) the reference compound WXFL2012A001 (Birinapant) (final concentration: 10 μM) as HPE and DMSO (final concentration: 0.5%) as ZPE.
• 5) purpose of the three repeated plates: the first plate was used for testing compounds' activity;
the second plate was used for testing cytotoxicity of the compounds; the third plate was used for solution replacement of the first and second plates: mixing inducer TNF-α and medium containing 0.1% FBS, and then being added to the third plate and the resultant mixture was transferred to the first plate where supernatants had been removed.
• 1) removing medium in NF-iBLuciferase Reporter Hela cell culture flask and washing cell once with PBS (10 mL) • 2) adding 0.25% pancreatin (3 mL) to T150 cell culture flask, and placinginto cell incubator (37° C., 5%CO2) and dissociating cell for 3 min, and then medium (10 mL) was added to end dissociation and blowing cells with electric pipette until cells were dispersed into single cell. • 3) Calculating cell density with cell counter Countstar • 4) Adjusting NF-κB Luciferase Reporter Hela density with medium to 2.0×10^5 cells/mL • 5) Adding cells to two Greiner 96 well black cell culture plates containing compounds, (100 μL per well (2.0×10^4 cells/well)), one plate was used for testing compounds' activity, another was used for testing cytotoxicity of the compounds. • 6) Placing cell culture plates into cell incubator (37° C., 5%CO2) and incubatingfor 24 h Second Day TNF-α Inducing • 1) TNF-α (100 μg/mL) was diluted into 20 ng/mL with 0.1% FBS medium and transferredto the third plate with 100 μL per well • 2) Removing medium of the first 96 well black cell culture plate (compound activity testing plate) after 24 h, replacing with fresh medium containing the compound and 20 ng/mL TNF-α in the third plate • 3) Placing cell culture plate into cell incubator (37° C., 5% CO2) and incubatingfor 6 h • 4) after 6 h, compound's activity in the first plate was tested according to Bright-Glo (Promega) manual method, luciferase signal in each well was tested by Envision plate reader • 5) compound's cytotoxicity in the second plate was tested according to ATPlite 1Step (Perkin Elmer) manual method, luciferase signal in each well was tested by Envision plate reader • 6) analyzing with software to obtain EC50 of compound.

cIAP1-BIR3 Protein = cIAP1-BIR3 Protein (Homo sapiens (Human), UniProt Q13490); assay: Fluorescence polarization affinity of compounds to cIAP1-BIR3; type: binding; details: cIAP1-BIR3 20 nM; 5 nM ARPFAQ-K(5-FAM)-NH2 probe; FP; pH 7.5; read-out: affinity to target protein in vitro, cIAP1-BIR3 Protein (IC50)
Chain of cIAP1-BIR3 Protein (Q13490 253-363): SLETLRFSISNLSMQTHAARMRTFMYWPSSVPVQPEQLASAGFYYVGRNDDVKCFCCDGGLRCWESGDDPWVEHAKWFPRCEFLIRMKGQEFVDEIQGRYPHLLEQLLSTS
Procedure: (§1) Biological Assay 1: affinity of compounds to cIAP1-BIR3, cIAP2-BIR3, XIAP-BIR3 • 1) Affinity of compounds listed in table to cIAP1-BIR3, Ciap2-BIR3, XIAP-BIR3 was tested referring to Nikolovska-Colesks, Z. et.Al. (Analytical Biochemistry,2004,232:261-273) to obtain IC50 value. Generally speaking, in 10-dose IC50 mode, IAP antagonists with different concentrations were diluted in series by 3-fold and fluorescence labelled ARPFAQ-K (5-FAM)-NH2 peptide was used as probe to test compounds binding to protein BIR3 domain. • 2) Test condition: cIAP1-BIR3: 20 nM; cIAP2-BIR3: 60 nM; XIAP-BIR3: 30 nM; 5 nM probe in 100 mM tripotassium phosphate, pH 7.5, 0.1 mg/mL BSA, 0.005% Triton X100 and 0.5% DMSO. • 3) Test procedure: compounds were added into protein with different concentrations by using ECHO (LabCyte), and then the mixture was preincubated for 15 min. The probe was added and the final concentration was 5 nM. After incubating for 60 min, FP was tested and mP was calculated. Experiment results were list in table 1.

cIAP2-BIR3 Protein = cIAP2-BIR3 Protein (Homo sapiens (Human), UniProt Q13489); assay: Fluorescence polarization affinity of compounds to cIAP2-BIR3; type: binding; details: cIAP2-BIR3 60 nM; 5 nM ARPFAQ-K(5-FAM)-NH2 probe; FP; pH 7.5; read-out: affinity to target protein in vitro, cIAP2-BIR3 Protein (IC50)
Chain of cIAP2-BIR3 Protein (Q13489 238-349): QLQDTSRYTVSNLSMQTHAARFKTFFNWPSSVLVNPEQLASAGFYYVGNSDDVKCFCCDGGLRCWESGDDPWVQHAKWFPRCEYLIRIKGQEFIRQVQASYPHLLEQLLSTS
Procedure: as §1

XIAP-BIR3 Protein = XIAP-BIR3 Protein (Homo sapiens (Human), UniProt P98170); assay: Fluorescence polarization affinity of compounds to XIAP-BIR3; type: binding; details: XIAP-BIR3 30 nM; 5 nM ARPFAQ-K(5-FAM)-NH2 probe; FP; pH 7.5; read-out: affinity to target protein in vitro, XIAP-BIR3 Protein (IC50)
Chain of XIAP-BIR3 Protein (P98170 241-356): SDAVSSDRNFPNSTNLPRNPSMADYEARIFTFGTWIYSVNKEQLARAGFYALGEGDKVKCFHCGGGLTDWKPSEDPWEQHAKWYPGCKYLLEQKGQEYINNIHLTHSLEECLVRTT
Procedure: as §1

[2] = Table 3, 20 ng/mL TNF-α, values given as ranges
[3] = Table 4, 20 ng/mL TNF-α, exact values with control Birinapant

SMILES | EC50 [1, 2] | IC50 (cIAP1-BIR3 Protein) | IC50 (cIAP2-BIR3 Protein) | IC50 (XIAP-BIR3 Protein) | EC50 [1, 3]
CC[C@H](NC(=O)[C@H](C)NC)C(=O)N1CCC[C@H]1Cn1c(-c2[nH]c3cc(F)ccc3c2C[C@@H]2C[C@H](F)CN2C(=O)[C@@H](NC(=O)[C@H](C)NC)C(C)(C)C)nc2cc(F)ccc21 [Embodiment 42] | 0.01 to 0.1 µM | < 0.01 µM | 0.01 to 0.1 µM | < 0.01 µM | 
CC[C@H](NC(=O)[C@H](C)NC)C(=O)N1C[C@@H](F)C[C@H]1Cc1c(-c2nc3cc(F)ccc3n2C[C@@H]2C[C@H](F)CN2C(=O)[C@@H](NC(=O)[C@H](C)NC)C(C)C)[nH]c2cc(F)ccc12 [Embodiment 18] | < 0.01 µM | < 0.01 µM | 0.01 to 0.1 µM | 0.01 to 0.1 µM | 0.00605 µM
CN[C@@H](C)C(=O)N[C@H](C(=O)N1CCC[C@H]1Cc1c(-c2nc3cc(F)ccc3n2C[C@@H]2CCCN2C(=O)[C@@H](NC(=O)[C@H](C)NC)C(C)C)[nH]c2cc(F)ccc12)C(C)C [Embodiment 1] | < 0.01 µM | < 0.01 µM | 0.01 to 0.1 µM | 0.01 to 0.1 µM | 0.00711 µM
CC[C@H](NC(=O)[C@H](C)NC)C(=O)N1C[C@@H](F)C[C@H]1Cc1c(-c2nc3cc(F)ccc3n2C[C@@H]2CCCN2C(=O)[C@@H](NC(=O)[C@H](C)NC)C(C)C)[nH]c2cc(F)ccc12 [Embodiment 39] | 0.01 to 0.1 µM | < 0.01 µM | 0.01 to 0.1 µM | < 0.01 µM | 
CCC[C@H](NC(=O)[C@H](C)NC)C(=O)N1C[C@@H](F)C[C@H]1Cc1c(-c2nc3cc(F)ccc3n2C[C@@H]2C[C@H](F)CN2C(=O)[C@@H](NC(=O)[C@H](C)NC)C(C)C)[nH]c2cc(F)ccc12 [Embodiment 32] | < 0.01 µM | < 0.01 µM | 0.01 to 0.1 µM | 0.01 to 0.1 µM | 
CC[C@H](NC(=O)[C@H](C)NC)C(=O)N1CCC[C@H]1Cc1c(-c2nc3cc(F)ccc3n2C[C@@H]2CCCN2C(=O)[C@@H](NC(=O)[C@H](C)NC)C(C)C)[nH]c2cc(F)ccc12 [Embodiment 2] | 0.01 to 0.1 µM | < 0.01 µM | 0.01 to 0.1 µM | 0.01 to 0.1 µM | 
CC[C@H](NC(=O)[C@H](C)NC)C(=O)N1C[C@@H](F)C[C@H]1Cc1c(-c2nc3cc(F)ccc3n2C[C@@H]2CCCN2C(=O)[C@@H](NC(=O)[C@H](C)NC)C(C)(C)C)[nH]c2cc(F)ccc12 [Embodiment 40] | < 0.01 µM | < 0.01 µM | 0.01 to 0.1 µM | 0.01 to 0.1 µM | 
CN[C@@H](C)C(=O)N[C@H](C(=O)N1CC(F)(F)C[C@H]1Cc1c(-c2nc3cc(F)ccc3n2C[C@@H]2CC(F)(F)CN2C(=O)[C@@H](NC(=O)[C@H](C)NC)C2CC2)[nH]c2cc(F)ccc12)C1CC1 [Embodiment 44] | > 0.1 µM | < 0.01 µM | 0.01 to 0.1 µM | < 0.01 µM | 
CC[C@H](NC(=O)[C@H](C)NC)C(=O)N1CCC[C@H]1Cc1c(-c2nc3cc(F)ccc3n2C[C@@H]2C[C@H](F)CN2C(=O)[C@@H](NC(=O)[C@H](C)NC)C(C)(C)C)[nH]c2cc(F)ccc12 [Embodiment 38] | < 0.01 µM | < 0.01 µM | 0.01 to 0.1 µM | < 0.01 µM | 
CC[C@H](NC(=O)[C@H](C)NC)C(=O)N1C[C@@H](F)C[C@H]1Cn1c(-c2[nH]c3cc(F)ccc3c2C[C@@H]2C[C@H](F)CN2C(=O)[C@@H](NC(=O)[C@H](C)NC)C(C)C)nc2cc(F)ccc21 [Embodiment 24] | 0.01 to 0.1 µM | < 0.01 µM | 0.01 to 0.1 µM | 0.01 to 0.1 µM | 

Other lines, results leading:

EC50 [1, 2] | IC50 (cIAP1-BIR3 Protein) | IC50 (cIAP2-BIR3 Protein) | IC50 (XIAP-BIR3 Protein) | EC50 [1, 3] | SMILES
< 0.01 µM | < 0.01 µM | < 0.01 µM | < 0.01 µM |  | CC[C@H](NC(=O)[C@H](C)NC)C(=O)N1C[C@@H](F)C[C@H]1Cn1c(-c2[nH]c3cc(F)ccc3c2C[C@@H]2C[C@H](F)CN2C(=O)[C@@H](NC(=O)[C@H](C)NC)C2CCCCC2)nc2cc(F)ccc21 [Embodiment 27]
< 0.01 µM | < 0.01 µM | 0.01 to 0.1 µM | 0.01 to 0.1 µM |  | CC[C@H](NC(=O)[C@H](C)NC)C(=O)N1C[C@@H](F)C[C@H]1Cc1c(-c2nc3cc(F)ccc3n2C[C@@H]2C[C@H](F)CN2C(=O)[C@@H](NC(=O)[C@H](C)NC)C2CCCCC2)[nH]c2cc(F)ccc12 [Embodiment 20]
0.01 to 0.1 µM | < 0.01 µM | 0.01 to 0.1 µM | 0.01 to 0.1 µM |  | CC[C@H](NC(=O)[C@H](C)NC)C(=O)N1C[C@@H](F)C[C@H]1Cn1c(-c2[nH]c3cc(F)ccc3c2C[C@@H]2C[C@H](F)CN2C(=O)[C@@H](NC(=O)[C@H](C)NC)C2CC2)nc2cc(F)ccc21 [Embodiment 25]
< 0.01 µM | < 0.01 µM | 0.01 to 0.1 µM | 0.01 to 0.1 µM |  | CN[C@@H](C)C(=O)N[C@H](C(=O)N1C[C@@H](F)C[C@H]1Cn1c(-c2[nH]c3cc(F)ccc3c2C[C@@H]2C[C@H](F)CN2C(=O)[C@@H](NC(=O)[C@H](C)NC)C(C)(C)C)nc2cc(F)ccc21)C1CC1 [Embodiment 22]
< 0.01 µM | < 0.01 µM | 0.01 to 0.1 µM | 0.01 to 0.1 µM |  | CN[C@@H](C)C(=O)N[C@H](C(=O)N1C[C@@H](F)C[C@H]1Cc1c(-c2nc3cc(F)ccc3n2C[C@@H]2C[C@H](F)CN2C(=O)[C@@H](NC(=O)[C@H](C)NC)C2CCCCC2)[nH]c2cc(F)ccc12)C1CC1 [Embodiment 30]
< 0.01 µM | < 0.01 µM | 0.01 to 0.1 µM | 0.01 to 0.1 µM |  | CCC[C@H](NC(=O)[C@H](C)NC)C(=O)N1C[C@@H](F)C[C@H]1Cn1c(-c2[nH]c3cc(F)ccc3c2C[C@@H]2C[C@H](F)CN2C(=O)[C@@H](NC(=O)[C@H](C)NC)C2CCCCC2)nc2cc(F)ccc21 [Embodiment 36]
< 0.01 µM | < 0.01 µM | 0.01 to 0.1 µM | 0.01 to 0.1 µM |  | CN[C@@H](C)C(=O)N[C@H](C(=O)N1C[C@@H](F)C[C@H]1Cc1c(-c2nc3cc(F)ccc3n2C[C@@H]2C[C@H](F)CN2C(=O)[C@@H](NC(=O)[C@H](C)NC)C(C)(C)C)[nH]c2cc(F)ccc12)C1CC1 [Embodiment 29]
< 0.01 µM | < 0.01 µM | < 0.01 µM | 0.01 to 0.1 µM |  | CN[C@@H](C)C(=O)N[C@H](C(=O)N1C[C@@H](F)C[C@H]1Cc1c(-c2nc3cc(F)ccc3n2C[C@@H]2C[C@H](F)CN2C(=O)[C@@H](NC(=O)[C@H](C)NC)C2CC2)[nH]c2cc(F)ccc12)C1CCCCC1 [Embodiment 23]
0.01 to 0.1 µM | < 0.01 µM | 0.01 to 0.1 µM | 0.01 to 0.1 µM |  | CN[C@@H](C)C(=O)N[C@H](C(=O)N1C[C@@H](F)C[C@H]1Cc1c(-c2nc3cc(F)ccc3n2C[C@@H]2C[C@H](F)CN2C(=O)[C@@H](NC(=O)[C@H](C)NC)C2CC2)[nH]c2cc(F)ccc12)C(C)C [Embodiment 21]
